According to patent US20260216174A1, “TREATMENT OF ER+ BREAST CANCER COMPRISING HOMOLOGOUS RECOMBINATION DEFICIENCY USING PARG INHIBITOR” (IDEAYA BIOSCIENCES, INC., priority 2023, published 2026):

Test system: HCC1428 tumors
Assay: Cell line derived xenograft (CDX) study with HCC1428 tumors
Format: in vivo, BALB/c nude mice
Settings: 45 mg/kg QD p.o.; for TGI value: versus vehicle group
Protocol: For this xenograft, supplemental estradiol benzoate injections (40 μg/20 μl/mouse) are administered subcutaneously twice a week to BALB/c nude mice, starting one week prior to cell implantation and continuing through to the end of study. After implantation, HCC1428 tumor were allocated to treatment arms once a median tumor volume of about 181 mm^3 was reached. In Table 3A the abbreviation “p.o.” refers to oral administration and the abbreviation “QD×28” refers to administration once a day for 28 days.
Tumors were measured and mice were weighed twice a week during the experimental period. The tumor volume (mm3) was estimated using the formula: TV=a×b2/2, where “a” and “b” were the long and the short diameter of a tumor, respectively. The Tumor volumes were used to calculate tumor growth inhibition (TGI, an indicator of antitumor activity) using the formula: TGI %: (1−{T/T0/Ct/C0}/1−{C0/Ct})×100 where Tt=median tumor volume of treated at time t, T0=median tumor volume of treated at time 0, Ct=median tumor volume of control at time t and C0=median tumor volume of control at time 0.
For this xenograft, supplemental estradiol benzoate injections (40 μg/20 μl/mouse) are administered subcutaneously twice a week to BALB/c nude mice, starting one week prior to cell implantation and continuing through to the end of study. After implantation, HCC1428 tumor were allocated to treatment arms once a median tumor volume of about 181 mm^3 was reached. In Table 4A the abbreviation “p.o.” refers to oral administration and the abbreviation “QD×28” refers to administration once a day for 28 days.
Tumors were measured and mice were weighed twice a week during the experimental period. The tumor volume (mm^3) was estimated using the formula: TV=a×b2/2, where “a” and “b” were the long and the short diameter of a tumor, respectively. The Tumor volumes were used to calculate tumor growth inhibition (TGI, an indicator of antitumor activity) using the formula: TGI %: (1−{T/T0/Ct/C0}/1−{C0/Ct})×100 where Tt=median tumor volume of treated at time t, T0=median tumor volume of treated at time 0, Ct=median tumor volume of control at time t and C0=median tumor volume of control at time 0. […] At 100 mg/kg QD the mean tumor volume achieved was 116 mm3, on Day 71. The tumor growth inhibition (TGI) of these treatments compared with vehicle group on Day 28 or 71 of the treatment is summarized in Table 4B (See FIG. 3).

NC(=O)c1cccc2cn(-c3ccc([C@@H]4CCCNC4)cc3)nc12 [niraparib, reference compound]
mean tumor volume (Compound A study): 230 mm^3
TGI value (Compound A study): 75.2%
mean tumor volume (Compound B study): 230 mm^3
TGI value (Compound B study): 75.2%
